Patent publication US20030017186A1, “Carboxylic acid fluorides as pesticides” (priority 1999, published 2003)

Columns and labels:
[1] = system: House longhorn beetle (Hylotrupes bajulus); assay: Fumigation test in glass vessel, house longhorn beetles; assay type: in vivo; settings: HYLOBA beetles; Example 5; ACF 50.6/48.2/51.4 g/m^3, SF 47.4/44.6/41 g/m^3 (1st/2nd/3rd fumigation); 23/23/22° C.
Description: (§1) b1) House longhorn beetle (Hylotrupes bajulus)=HYLOBA
(§2) The test organisms, separated by species, were placed into a glass vessel measuring 30 cm×30 cm×60 cm, which was sealed with a glass lid so as to be airtight. The adults and the larvae of the mealworm beetle (Tenebrio molitor) and the broad-horned flour beetle (Gnathocerus cornutus) were placed into small glass vessels approximately 5 cm in diameter, which were closed with a gauze lid and in which they could freely move about. The larvae of the rice weevil had burrowed into seeds of grain. The wood pest larvae were inserted into small blocks of wood measuring 5 cm×2.5 cm×2 cm. The openings were sealed with wads of cotton wool. Only one each of the larvae of the house longhorn beetle (Hylotrupes bajulus) was inserted into a piece of wood, while 6-8 larvae of the common furniture beetle (Anobium punctatum) were inserted into each piece of wood.
(§3) The respective gas was then introduced into the fumigation vessel through a gas line from a gas tank that contained the specified amount of gas. After a defined time period, the fumigation vessel was purged with compressed air. The discharged gas was purified by an attached gas scrubber.
(§4) The beetles were observed until they died. This point was recorded for each species. The larvae of the wood pests as well as the larvae of the rice weevil (Sitophilus oryzae) had to be picked out of the wood or the grain to check their condition. If any of the animals were still alive, the wooden test blocks remaining in the vessel were fumigated again and were reexamined after the corresponding time span had elapsed. The same number of animals in the untreated control was also checked at each point.
(§5) The vitality of the animals was checked at certain time intervals. The beetles could be observed through the fumigation vessel. This was also true for the larvae of the mealworm beetle and the broad-horned flour beetle. The wooden test blocks of the wood pest larvae were opened with hammer and chisel. Tweezers were used to pull the rice weevil larvae out of the grain seeds. The exact time intervals and the number of the evaluated pests were documented in the test results.

[2] = system: Rice weevil (Sitophilus oryzae); assay: Fumigation test in glass vessel, rice weevils; assay type: in vivo; settings: SITTOR beetles; Example 5; ACF 50.6/48.2/51.4 g/m^3, SF 47.4/44.6/41 g/m^3 (1st/2nd/3rd fumigation); 23/23/22° C.
Description: (§6) a2) Rice weevil (Sitophilus oryzae)=SITTOR
as §2, §3, §4, §5

[3] = system: Mealworm beetle (Tenebrio molitor) larvae; assay: Fumigation test in glass vessel, mealworm beetle larvae; assay type: in vivo; settings: TENEMO larvae; Example 5; ACF 50.6/48.2/51.4 g/m^3, SF 47.4/44.6/41 g/m^3 (1st/2nd/3rd fumigation); 23/23/22° C.
Description: (§7) a1) Mealworm beetle (Tenebrio molitor)=TENEMO
as §2, §3, §4, §5

wood and storage pests = assay: Fumigation test, wood and storage pests (overall statements); assay type: in vivo; settings: Example 5; wood and storage pests
Description: as §2, §3, §4, §5

[4] = system: Mealworm beetle (Tenebrio molitor); assay: Fumigation test in glass vessel, mealworm beetles; assay type: in vivo; settings: TENEMO beetles; Example 5; ACF 50.6/48.2/51.4 g/m^3, SF 47.4/44.6/41 g/m^3 (1st/2nd/3rd fumigation); 23/23/22° C.
Description: as §7, §2, §3, §4, §5

[5] = system: Saw-toothed grain beetle (Oryzaephilus surinamensis); assay: Fumigation test in glass vessel, saw-toothed grain beetles; assay type: in vivo; settings: ORYZSA beetles; Example 5; ACF 50.6/48.2/51.4 g/m^3, SF 47.4/44.6/41 g/m^3 (1st/2nd/3rd fumigation); 23/23/22° C.
Description: a4) Saw-toothed grain beetle (Oryzaephilus surinamensis)=ORYZSA
as §2, §3, §4, §5

[6] = system: Rice weevil (Sitophilus oryzae) larvae; assay: Fumigation test in glass vessel, rice weevil larvae in grain seeds; assay type: in vivo; settings: SITTOR larvae in grain seeds; Example 5; ACF 50.6/48.2/51.4 g/m^3, SF 47.4/44.6/41 g/m^3 (1st/2nd/3rd fumigation); 23/23/22° C.
Description: as §6, §2, §3, §4, §5

Incisitermes tabogae = assay: Termite control fumigation test, Incisitermes tabogae; assay type: in vivo; settings: Example 6
Description: (§8) c) American drywood termites (Cryptotermes brevis)=CRYPBR, and Incisitermes tabogae=INCITA
as §2, §3, §4, §5

[7] = system: Broad-horned flour beetle (Gnathocerus cornutus); assay: Fumigation test in glass vessel, broad-horned flour beetles; assay type: in vivo; settings: GNATCO beetles; Example 5; ACF 50.6/48.2/51.4 g/m^3, SF 47.4/44.6/41 g/m^3 (1st/2nd/3rd fumigation); 23/23/22° C.
Description: (§9) a3) Broad-horned flour beetle (Gnathocerus cornutus)=GNATCO
as §2, §3, §4, §5

[8] = system: House longhorn beetle (Hylotrupes bajulus) larvae; assay: Fumigation test in glass vessel, house longhorn beetle larvae in wood blocks; assay type: in vivo; settings: HYLOBA larvae in wood blocks; Example 5; ACF 50.6/48.2/51.4 g/m^3, SF 47.4/44.6/41 g/m^3 (1st/2nd/3rd fumigation); 23/23/22° C.
Description: as §1, §2, §3, §4, §5

termites = assay: Termite control fumigation test (overall statements); assay type: in vivo, Cryptotermes brevis, Incisitermes tabogae; settings: Example 6; compared with those treated with acetyl fluoride
Description: as §8, §2, §3, §4
as §5, with “The wooden test blocks of the wood pest larvae were opened with hammer and chisel. Tweezers were used to pull the rice weevil larvae out of the grain seeds.” left out

[9] = system: Broad-horned flour beetle (Gnathocerus cornutus) larvae; assay: Fumigation test in glass vessel, broad-horned flour beetle larvae; assay type: in vivo; settings: GNATCO larvae; Example 5; ACF 50.6/48.2/51.4 g/m^3, SF 47.4/44.6/41 g/m^3 (1st/2nd/3rd fumigation); 23/23/22° C.
Description: as §9, §2, §3, §4, §5

[10] = system: Common furniture beetle (Anobium punctatum); assay: Fumigation test in glass vessel, common furniture beetles; assay type: in vivo; settings: ANOBPU beetles; Example 5; ACF 50.6/48.2/51.4 g/m^3, SF 47.4/44.6/41 g/m^3 (1st/2nd/3rd fumigation); 23/23/22° C.
Description: (§10) b2) Common furniture beetle (Anobium punctatum)=[…]
as §2, §3, §4, §5

[11] = system: American drywood termites (Cryptotermes brevis); assay: Termite control fumigation test, Cryptotermes brevis; assay type: in vivo; settings: Example 6
Description: as §8, §2, §3, §4, §5

[12] = system: Common furniture beetle (Anobium punctatum) larvae; assay: Fumigation test in glass vessel, common furniture beetle larvae in wood blocks; assay type: in vivo; settings: ANOBPU larvae in wood blocks; Example 5; ACF 50.6/48.2/51.4 g/m^3, SF 47.4/44.6/41 g/m^3 (1st/2nd/3rd fumigation); 23/23/22° C.
Description: as §10, §2, §3, §4, §5

[13] = INCITA termites, ACF 50.0/53.8 g/m^3, SF 47.8/44.8 g/m^3 (1st/2nd fumigation), 23.7/24° C.
[14] = CRYPBR termites, ACF 50.0/53.8 g/m^3, SF 47.8/44.8 g/m^3 (1st/2nd fumigation), 23.7/24° C.

SMILES: O=S(=O)(F)F [SF, sulfuryl fluoride, reference compound]
- Number alive, 30 min. after Start of Fumigation [1]: 4
- Number alive, 1 hr. after Start of Fumigation [1]: 2
- Number alive, 3 hrs. after Start of Fumigation [1]: 0
- Number dead, 30 min. after Start of Fumigation [1]: 0
- Number dead, 1 hr. after Start of Fumigation [1]: 2
- Number dead, 3 hrs. after Start of Fumigation [1]: 4
- Number alive, 30 min. after Start of Fumigation [2]: 0
- Number dead, 30 min. after Start of Fumigation [2]: 15
- Number alive, 30 min. after Start of Fumigation [3]: 1
- Number alive, 1 hr. after Start of Fumigation [3]: 1
- Number alive, 3 hrs. after Start of Fumigation [3]: 0
- Number dead, 30 min. after Start of Fumigation [3]: 4
- Number dead, 1 hr. after Start of Fumigation [3]: 4
- Number dead, 3 hrs. after Start of Fumigation [3]: 5
- Speed of action compared with acetyl fluoride (wood and storage pests): clearly acts more slowly than acetyl fluoride
- Number alive, 30 min. after Start of Fumigation [4]: 0
- Number dead, 30 min. after Start of Fumigation [4]: 10
- Number alive, 30 min. after Start of Fumigation [5]: 0
- Number dead, 30 min. after Start of Fumigation [5]: 15
- Number alive, 1 hr. after Start of Fumigation [6]: 0
- Number dead, 1 hr. after Start of Fumigation [6]: 15
- Condition of Incisitermes on reexamination after 24-hour observation period (Incisitermes tabogae; animals fumigated 1 hour, then 24-hour observation): dead
- Number alive, 30 min. after 1st Fumigation (Incisitermes tabogae; [13]): 90
- Number alive, 1 hr. after 1st Fumigation (Incisitermes tabogae; [13]): 30
- Number alive, 3 hrs. after 1st Fumigation (Incisitermes tabogae; [13]): 0
- Number dead, 30 min. after 1st Fumigation (Incisitermes tabogae; [13]): 0
- Number dead, 1 hr. after 1st Fumigation (Incisitermes tabogae; [13]): 0
- Number dead, 3 hrs. after 1st Fumigation (Incisitermes tabogae; [13]): 60
- Number alive, 30 min. after Start of Fumigation [7]: 0
- Number dead, 30 min. after Start of Fumigation [7]: 15
- Number alive, 1 hr. after Start of Fumigation [8]: 3
- Number alive, 3 hrs. after Start of Fumigation [8]: 0
- Number alive, 6 hrs after Start of Fumigation [8]: 0
- Number dead, 1 hr. after Start of Fumigation [8]: 1
- Number dead, 3 hrs. after Start of Fumigation [8]: 4
- Number dead, 6 hrs after Start of Fumigation [8]: 6
- Liveliness of termites after 1 hour of fumigation (termites): more lively overall
- Number alive, 30 min. after Start of Fumigation [9]: 15
- Number alive, 1 hr. after Start of Fumigation [9]: 0
- Number dead, 30 min. after Start of Fumigation [9]: 0
- Number dead, 1 hr. after Start of Fumigation [9]: 15
- Number alive, 30 min. after Start of Fumigation [10]: 0
- Number dead, 30 min. after Start of Fumigation [10]: 6
- Number alive, 30 min. after 1st Fumigation [11, 14]: 180
- Number alive, 1 hr. after 1st Fumigation [11, 14]: 60
- Number alive, 3 hrs. after 1st Fumigation [11, 14]: 0
- Number dead, 30 min. after 1st Fumigation [11, 14]: 0
- Number dead, 1 hr. after 1st Fumigation [11, 14]: 0
- Number dead, 3 hrs. after 1st Fumigation [11, 14]: 120
- Number of Cryptotermes still alive on reexamination after 24-hour observation period ([11]; out of 60 animals fumigated 1 hour, then 24-hour observation): 7
- Number alive, 1 hr. after Start of Fumigation [12]: 3
- Number alive, 3 hrs. after Start of Fumigation [12]: 4
- Number alive, 6 hrs after Start of Fumigation [12]: 0
- Number dead, 1 hr. after Start of Fumigation [12]: 0
- Number dead, 3 hrs. after Start of Fumigation [12]: 0
- Number dead, 6 hrs after Start of Fumigation [12]: 8
